Columns and labels:
[1] = target: T1, Gorilla α4 GlyR (Gorilla gorilla, UniProt G3RDJ8); test: whole-cell patch clamp, Hill fit; type: cell-based
T1 construct: gene GLRA4; full-length synthetic predicted cDNA in pRK5, homomeric pentamer, HEK293 cells
T1 sequence (G3RDJ8 29-457): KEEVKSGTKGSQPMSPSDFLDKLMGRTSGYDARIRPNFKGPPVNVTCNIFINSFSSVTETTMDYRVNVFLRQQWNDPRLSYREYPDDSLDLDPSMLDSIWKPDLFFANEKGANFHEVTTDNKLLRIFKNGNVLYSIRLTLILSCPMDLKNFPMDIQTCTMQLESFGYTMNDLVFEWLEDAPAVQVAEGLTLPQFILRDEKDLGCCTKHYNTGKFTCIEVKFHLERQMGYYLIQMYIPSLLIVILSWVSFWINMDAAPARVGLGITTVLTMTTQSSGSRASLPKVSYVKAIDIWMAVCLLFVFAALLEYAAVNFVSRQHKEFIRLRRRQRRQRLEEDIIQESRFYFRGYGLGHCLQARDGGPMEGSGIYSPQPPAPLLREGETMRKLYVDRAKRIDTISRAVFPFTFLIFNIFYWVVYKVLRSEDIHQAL
Text: whole-cell patch clamp, Hill fit on Gorilla α4 GlyR

[2] = target: T2, Mouse α4 GlyR (Mus musculus, UniProt Q61603); test: whole-cell patch clamp, Hill fit; type: cell-based
T2 construct: gene Glra4; full-length wild-type cDNA from whole brain in pRK5, homomeric pentamer, HEK293 cells
T2 sequence (Q61603 28-456): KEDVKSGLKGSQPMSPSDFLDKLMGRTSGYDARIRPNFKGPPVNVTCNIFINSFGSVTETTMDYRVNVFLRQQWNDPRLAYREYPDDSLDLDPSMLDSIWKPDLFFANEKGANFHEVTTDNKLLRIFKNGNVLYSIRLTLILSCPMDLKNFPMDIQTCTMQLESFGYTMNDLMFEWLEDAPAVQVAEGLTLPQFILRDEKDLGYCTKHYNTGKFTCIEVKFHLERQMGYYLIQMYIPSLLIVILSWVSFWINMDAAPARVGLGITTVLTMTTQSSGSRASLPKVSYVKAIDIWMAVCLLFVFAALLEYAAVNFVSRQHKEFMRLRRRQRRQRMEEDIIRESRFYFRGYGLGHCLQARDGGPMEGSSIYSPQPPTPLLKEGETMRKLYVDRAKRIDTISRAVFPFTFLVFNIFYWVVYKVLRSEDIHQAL
Text: whole-cell patch clamp, Hill fit on Mouse α4 GlyR

[3] = system: T3, Human α4^K59E/C204Y + α1; settings: agonist; -40 mV; pH 7.4; 22 °C
T3 construct: gene GLRA1
Text: whole-cell patch clamp, Hill fit on Human α4^K59E/C204Y + α1

EC50 [1]: 86 ± 16 µM
EC50 [2]: 61 ± 10 µM
EC50 [3]: 350 ± 29 µM
SMILES: NCC(=O)O [glycine]

Source: article PMC5797729, “Structure/Function Studies of the α4 Subunit Reveal Evolutionary Loss of a GlyR Subtype Involved in Startle and Escape Responses” (Frontiers in Molecular Neuroscience, 2018)
